Results taken from PubChem BioAssay (NCI).
Values joined by “and” are separate entries in the source; they are usually repeats but may differ in a detail not shown here. Identical values can stand only once.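 Dose response: 5 concentrations. Exposure: 48 h. Format: 96-well plates. Endpoint: linear interpolation; highest concentration if not reached. GI50 is the concentration that inhibits growth by half. The concentration for full growth arrest is given as TGI.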

Columns and labels:
Test in all cases: inhibition of tumour cell growth, NCI panel, 48 h
786-0 renal = tested on: 786-0 renal
A498 renal = tested on: A498 renal
A549 NSCLC = tested on: A549 NSCLC
ACHN renal = tested on: ACHN renal
BT-549 breast = tested on: BT-549 breast
CAKI-1 renal = tested on: CAKI-1 renal
CCRF-CEM leukemia = tested on: CCRF-CEM leukemia
COLO 205 colon = tested on: COLO 205 colon
DU-145 prostate = tested on: DU-145 prostate
EKVX NSCLC = tested on: EKVX NSCLC
HCC-2998 colon = tested on: HCC-2998 colon
HCT-116 colon = tested on: HCT-116 colon
HCT-15 colon = tested on: HCT-15 colon
HL-60(TB) leukemia = tested on: HL-60(TB) leukemia
HOP-62 NSCLC = tested on: HOP-62 NSCLC
HOP-92 NSCLC = tested on: HOP-92 NSCLC
HT29 colon = tested on: HT29 colon
IGROV1 ovarian = tested on: IGROV1 ovarian
K-562 leukemia = tested on: K-562 leukemia
KM12 colon = tested on: KM12 colon
LOX IMVI melanoma = tested on: LOX IMVI melanoma
MALME-3M melanoma = tested on: MALME-3M melanoma
MCF7 breast = tested on: MCF7 breast
MDA-MB-231 breast = tested on: MDA-MB-231 breast
MDA-MB-435 = tested on: MDA-MB-435
MDA-MB-468 breast = tested on: MDA-MB-468 breast
NCI-H226 lung = tested on: NCI-H226 lung
NCI-H23 lung = tested on: NCI-H23 lung
NCI-H460 lung = tested on: NCI-H460 lung
NCI-H522 lung = tested on: NCI-H522 lung
OVCAR-3 ovarian = tested on: OVCAR-3 ovarian
OVCAR-4 ovarian = tested on: OVCAR-4 ovarian
OVCAR-5 ovarian = tested on: OVCAR-5 ovarian
OVCAR-8 ovarian = tested on: OVCAR-8 ovarian
PC-3 prostate = tested on: PC-3 prostate
RPMI-8226 leukemia = tested on: RPMI-8226 leukemia
RXF 393 renal = tested on: RXF 393 renal
SF-268 CNS = tested on: SF-268 CNS
SF-295 CNS = tested on: SF-295 CNS
SF-539 CNS = tested on: SF-539 CNS
SK-MEL-2 melanoma = tested on: SK-MEL-2 melanoma
SK-MEL-28 melanoma = tested on: SK-MEL-28 melanoma
SK-MEL-5 melanoma = tested on: SK-MEL-5 melanoma
SK-OV-3 ovarian = tested on: SK-OV-3 ovarian
SN12C renal = tested on: SN12C renal
SNB-19 CNS = tested on: SNB-19 CNS
SR leukemia = tested on: SR leukemia
SW-620 colon = tested on: SW-620 colon
T-47D breast = tested on: T-47D breast
TK-10 renal = tested on: TK-10 renal
U251 CNS = tested on: U251 CNS
UACC-257 melanoma = tested on: UACC-257 melanoma
UACC-62 melanoma = tested on: UACC-62 melanoma
UO-31 renal = tested on: UO-31 renal

Compound `COc1cc(/C=C/C(=O)c2cnn(-c3cc(=O)[nH]c4ccc(Br)cc34)c2C)cc(OC)c1OC` has a GI50 (786-0 renal) of 3.63 µM, a TGI (786-0 renal) of 14.3 µM and a GI50 (A498 renal) of 28.5 µM. For the same compound, the TGI (A498 renal) was 51.6 µM, the GI50 (A549 NSCLC) was 3.52 µM and the TGI (A549 NSCLC) was > 100 µM. The GI50 (ACHN renal) was 1.84 µM, the TGI (ACHN renal) was 4.31 µM and the GI50 (BT-549 breast) was 2.29 µM. It also gave a TGI (BT-549 breast) of 6.28 µM, a GI50 (CAKI-1 renal) of 4.11 µM and a TGI (CAKI-1 renal) of 31.3 µM. The GI50 (CCRF-CEM leukemia) was 2.88 µM, the TGI (CCRF-CEM leukemia) was > 100 µM and the GI50 (COLO 205 colon) was 3.35 µM. For the same compound, the TGI (COLO 205 colon) was 10.9 µM, the GI50 (DU-145 prostate) was 3.61 µM and the TGI (DU-145 prostate) was 30.5 µM. For the same compound, the GI50 (EKVX NSCLC) was 2.96 µM, the TGI (EKVX NSCLC) was 13.4 µM and the GI50 (HCC-2998 colon) was 3.3 µM. For the same compound, the TGI (HCC-2998 colon) was 11 µM, the GI50 (HCT-116 colon) was 3.27 µM and the TGI (HCT-116 colon) was 11.5 µM. It also gave a GI50 (HCT-15 colon) of 1.71 µM, a TGI (HCT-15 colon) of 3.92 µM and a GI50 (HL-60(TB) leukemia) of 3 µM. The TGI (HL-60(TB) leukemia) was > 100 µM, the GI50 (HOP-62 NSCLC) was 3.55 µM and the TGI (HOP-62 NSCLC) was 17.2 µM. For the same compound, the GI50 (HOP-92 NSCLC) was 8.2 µM, the TGI (HOP-92 NSCLC) was > 100 µM and the GI50 (HT29 colon) was 2.2 µM. For the same compound, the TGI (HT29 colon) was 5.07 µM, the GI50 (IGROV1 ovarian) was 2.23 µM and the TGI (IGROV1 ovarian) was 6.33 µM. The GI50 (K-562 leukemia) was 2.86 µM, the TGI (K-562 leukemia) was > 100 µM and the GI50 (KM12 colon) was 3.48 µM. The TGI (KM12 colon) was 14.6 µM, the GI50 (LOX IMVI melanoma) was 1.49 µM and the TGI (LOX IMVI melanoma) was 3.35 µM. The GI50 (MALME-3M melanoma) was 4.66 µM, the TGI (MALME-3M melanoma) was 22.3 µM and the GI50 (MCF7 breast) was 2.16 µM. The TGI (MCF7 breast) was 9.06 µM, the GI50 (MDA-MB-231 breast) was 3.11 µM and the TGI (MDA-MB-231 breast) was 13.7 µM. For the same compound, the GI50 (MDA-MB-435) was 2.72 µM, the TGI (MDA-MB-435) was 8.65 µM and the GI50 (MDA-MB-468 breast) was 1.93 µM. For the same compound, the TGI (MDA-MB-468 breast) was 5.43 µM, the GI50 (NCI-H226 lung) was 2.49 µM and the TGI (NCI-H226 lung) was 7.38 µM. For the same compound, the GI50 (NCI-H23 lung) was 1.92 µM, the TGI (NCI-H23 lung) was 4.33 µM and the GI50 (NCI-H460 lung) was 2.39 µM. It also gave a TGI (NCI-H460 lung) of 5.37 µM, a GI50 (NCI-H522 lung) of 2.26 µM and a TGI (NCI-H522 lung) of 5.98 µM. For the same compound, the GI50 (OVCAR-3 ovarian) was 3.45 µM, the TGI (OVCAR-3 ovarian) was 12.1 µM and the GI50 (OVCAR-4 ovarian) was 5.2 µM. For the same compound, the TGI (OVCAR-4 ovarian) was > 100 µM, the GI50 (OVCAR-5 ovarian) was 3.09 µM and the TGI (OVCAR-5 ovarian) was 10.7 µM. The GI50 (OVCAR-8 ovarian) was 3.48 µM, the TGI (OVCAR-8 ovarian) was > 100 µM and the GI50 (PC-3 prostate) was 5.19 µM. For the same compound, the TGI (PC-3 prostate) was > 100 µM, the GI50 (RPMI-8226 leukemia) was 2.84 µM and the TGI (RPMI-8226 leukemia) was > 100 µM. For the same compound, the GI50 (RXF 393 renal) was 1.87 µM, the TGI (RXF 393 renal) was 3.95 µM and the GI50 (SF-268 CNS) was 3.76 µM. For the same compound, the TGI (SF-268 CNS) was > 100 µM, the GI50 (SF-295 CNS) was 2.4 µM and the TGI (SF-295 CNS) was 7.75 µM. For the same compound, the GI50 (SF-539 CNS) was 2.03 µM, the TGI (SF-539 CNS) was 4.54 µM and the GI50 (SK-MEL-2 melanoma) was 3.52 µM. For the same compound, the TGI (SK-MEL-2 melanoma) was 12.2 µM, the GI50 (SK-MEL-28 melanoma) was 2.84 µM and the TGI (SK-MEL-28 melanoma) was 8.75 µM. The GI50 (SK-MEL-5 melanoma) was 3.05 µM, the TGI (SK-MEL-5 melanoma) was 10.7 µM and the GI50 (SK-OV-3 ovarian) was 4.34 µM. For the same compound, the TGI (SK-OV-3 ovarian) was > 100 µM, the GI50 (SN12C renal) was 2.94 µM and the TGI (SN12C renal) was 11.6 µM. It also gave a GI50 (SNB-19 CNS) of 3.25 µM, a TGI (SNB-19 CNS) of 12.6 µM and a GI50 (SR leukemia) of 2.44 µM. For the same compound, the TGI (SR leukemia) was > 100 µM, the GI50 (SW-620 colon) was 3.09 µM and the TGI (SW-620 colon) was 8.61 µM. The GI50 (T-47D breast) was 3.06 µM, the TGI (T-47D breast) was 18.8 µM and the GI50 (TK-10 renal) was 3.8 µM. It also gave a TGI (TK-10 renal) of 24.1 µM, a GI50 (U251 CNS) of 2.54 µM and a TGI (U251 CNS) of 7.37 µM. The GI50 (UACC-257 melanoma) was 7.78 µM, the TGI (UACC-257 melanoma) was 48.5 µM and the GI50 (UACC-62 melanoma) was 1.79 µM. The TGI (UACC-62 melanoma) was 4 µM, the GI50 (UO-31 renal) was 2.83 µM and the TGI (UO-31 renal) was 12.5 µM.
In the case of `C#C[C@]1(O)CC[C@H]2[C@@H]3CC=C4c5sc(Nc6ccccc6)nc5CC[C@]4(C)[C@H]3CC[C@@]21C`, the GI50 (MDA-MB-468 breast) is reported as 1.71 µM and the TGI (MDA-MB-468 breast) is reported as 4.25 µM.
Work on `CCN(CC)CCOc1ccc(/C(=C(\C)c2ccc(F)c(OC)c2)c2ccc(Cl)cc2)cc1` yielded a GI50 (MDA-MB-468 breast) of 1.91 µM and a TGI (MDA-MB-468 breast) of 4.23 µM.
`CC(=O)Oc1ccccc1C(=O)N=C1[Se]CCCN1C(=O)c1ccccc1OC(C)=O` was tested, and the GI50 (MDA-MB-468 breast) was 3.38 µM and the TGI (MDA-MB-468 breast) was 10.9 µM.
With `Cc1sc2nc(NCCc3c[nH]c4ccc(Cl)cc34)[nH]c(=O)c2c1C` the GI50 (MDA-MB-468 breast) was 2.13 µM and the TGI (MDA-MB-468 breast) was 4.68 µM.
Compound `COC(=O)[C@@H](NC(=O)[C@@H](OC)[C@@H]1Cc2cc3cc(OC4CC(OC5CC(O)C(O)C(C)O5)C(O)C(C)O4)c(C)c(O)c3c(O)c2C(=O)[C@H]1OC1CC(OC2CC(OC3CC(C)(O)C(O)C(C)O3)C(O)C(C)O2)C(O)C(C)O1)C(C)C` (some centres undefined) has a GI50 (MDA-MB-468 breast) of 0.131 µM and a TGI (MDA-MB-468 breast) of 2.6 µM.
For `O=C1/C(=C\c2cccn2Cc2ccccc2)c2ccccc2N1c1c(Cl)cccc1Cl`, the GI50 (MDA-MB-468 breast) was 0.118 µM and the TGI (MDA-MB-468 breast) was 0.463 µM.
Work on `COc1cc2cn3c4ccc(O)cc4[nH]c(=O)c3c2cc1OC` yielded a GI50 (MDA-MB-468 breast) of 0.02 µM and a TGI (MDA-MB-468 breast) of 0.0568 µM.
For `Cc1ccc2c(n1)C(=O)C(Cl)=C(Nc1ccc(C(F)(F)F)cc1)C2=O`, the GI50 (MDA-MB-468 breast) was 1.89 µM and the TGI (MDA-MB-468 breast) was 4 µM.
`O=C(N/N=C\c1cc(Br)ccc1O)c1ccncc1` was tested, and the GI50 (MDA-MB-468 breast) was 1.07 µM and the TGI (MDA-MB-468 breast) was 5.51 µM.
In the case of `O=C(Nc1cccc(Cl)c1)c1cc2ccccc2cc1O`, the GI50 (MDA-MB-468 breast) is reported as 2.2 µM and 1.91 µM and the TGI (MDA-MB-468 breast) is reported as 10.4 µM and 6.67 µM.
`CCN(CC)CC(C)(C)C(=O)/C=C/c1ccc(Cl)c(Cl)c1` showed a GI50 (MDA-MB-468 breast) of 1.69 µM and a TGI (MDA-MB-468 breast) of 3.42 µM.
For `Nc1nc(Nc2ccccc2)c2ncn(Cc3cc4c(cc3Br)OCO4)c2n1`, the GI50 (MDA-MB-468 breast) was < 0.01 µM and the TGI (MDA-MB-468 breast) was 18.2 µM.
Work on `c1ccc2c3ccn4cc5c(cc4c-3nc2c1)CCCC5` yielded a GI50 (MDA-MB-468 breast) of 1.39 µM and a TGI (MDA-MB-468 breast) of 3.6 µM.
Compound `CCc1cccc2c3c(sc12)C(c1ccc(Cl)cc1)C(C#N)=C(/N=C/c1ccc(Cl)cc1)O3` (centres undefined) has a GI50 (MDA-MB-468 breast) of 0.565 µM and a TGI (MDA-MB-468 breast) of 2.46 µM.
With `O=C(CN(C1CCCCC1)C1CCCCC1)Nc1ccc(S(=O)(=O)c2ccc(NC(=O)CN(C3CCCCC3)C3CCCCC3)cc2)cc1` the GI50 (MDA-MB-468 breast) was 1.04 µM and the TGI (MDA-MB-468 breast) was 2.93 µM.
`Cc1c(C2Nc3ccccc3C2C)[nH]c2ccccc12` (centres undefined) showed a GI50 (MDA-MB-468 breast) of 10.4 µM and a TGI (MDA-MB-468 breast) of 27.8 µM.
In the case of `Nc1nc(Br)nc2c1ncn2C1CC(O)C(CO)O1` (centres undefined), the GI50 (MDA-MB-468 breast) is reported as > 100 µM and the TGI (MDA-MB-468 breast) is reported as > 100 µM.
`CC(=O)Oc1ccccc1C(=O)N=C1[Se]CCN1C(=O)c1ccccc1OC(C)=O` showed a GI50 (MDA-MB-468 breast) of 0.74 µM and a TGI (MDA-MB-468 breast) of 2.67 µM.
